Tested on: Palmitoyl CoA oxidation in rat heart mitochondria
Assay: Palmitoyl CoA oxidation in isolated rat heart mitochondria (Mitochondrial Assays)
Assay type: biochemical
Settings: 1-C14 palmitoyl CoA, 15 min at 30° C., read-out: Palm CoA inhibition IC50
Procedure: Rat heart mitochondria are isolated by the method of Nedergard and Cannon (Methods in Enzymol. 55, 3, 1979).
Palmitoyl CoA oxidation—The Palmityl CoA oxidation is carried out in a total volume of 100 micro liters containing the following agents: 110 mM KCl, 33 mM Tris buffer at pH 8, 2 mM KPi, 2 mM MgCl2, 0.1 mM EDTA, 14.7 microM defatted BSA, 0.5 mM malic acid, 13 mM carnitine, 1 mM ADP, 52 micrograms of mitochondrial protein, and 16 microM 1-C14 palmitoyl CoA (Sp. Activity 60 mCi/mmole; 20 microCi/ml, using 5 microliters per assay). The compounds of this invention are added in a DMSO solution at the following concentrations: 100 micro molar, 30 micro molar, and 3 micro molar. In each assay, a DMSO control is used. After 15 min at 30° C., the enzymatic reaction is centrifuged (20,000 g for 1 min), and 70 microliters of the supernatant is added to an activated reverse phase silicic acid column (approximately 0.5 ml of silicic acid). The column is eluted with 2 ml of water, and 0.5 ml of the eluent is used for scintillation counting to determine the amount of C^14 trapped as C^14 bicarbonate ion.

| IC50 [µM] | Molecule |
| --- | --- |
| 2.9 | Cc1nc2cc(OCC(CN3CCN(CC(=O)Nc4cccc(-c5ccccc5)c4)CC3)NS(C)(=O)=O)ccc2s1 (stereo not shown) [2-(4-{3-(2-methylbenzothiazol-5-yloxy)-2-[(methylsulfonyl)amino]propyl}piperazinyl)-N-(3-phenylphenyl)acetamide] |
| 12.7 | CC(=O)NC(COc1ccc2sc(C)nc2c1)CN1CCN(CC(=O)Nc2cccc(-c3ccccc3)c2)CC1 (stereo not shown) [2-{4-[2-(acetylamino)-3-(2-methylbenzothiazol-5-yloxy)propyl]piperazinyl}-N-(3-phenylphenyl)acetamide] |
| 8.2 | CC(=O)NC(COc1ccc2sc(C)nc2c1)CN1CCN(C(=O)Nc2ccc3c(c2)Cc2ccccc2-3)CC1 (stereo not shown) [N-{2-[4-(N-fluoren-2-ylcarbamoyl)piperazinyl]-1-[(2-methylbenzothiazol-5-yloxy)methyl]ethyl}acetamide] |
| 3 | N-fluoren-2-yl(4-{3-(2-methylbenzothiazol-5-yloxy)-2-[(methylsulfonyl)amino]propyl}-piperazinyl)carboxamide |

From patent US7601721B2, “Substituted heterocyclic compounds” (Gilead Palo Alto, Inc., priority 2004, dated 2009)
